Data published in patent US20240174727A1, “LONG-ACTING NATRIURETIC PEPTIDES AND USES THEREOF” (Eli Lilly and Company, priority 2022, published 2024).
Numbered stars: 1 amine (or outer) side, 2 acyl side, 3 side chain; on linkers, the order of the positions; unused ones are H or OH. Bridge positions count the residues as written; N and C are the ends. Square brackets hold non-standard residues; d marks the D form. * marks the point of attachment. C20 diacid = O=C(O)CCCCCCCCCCCCCCCCCCC(=O)*; γGlu = O=C(O)[C@H](CCC(=O)[*:2])N[*:1]; 4Pal = N[C@@H](Cc1ccncc1)C(=O)O; Dap = NC[C@H](N)C(=O)O; CH2 = C([*:1])[*:2]

Key:
[1] = tested on: plasma cGMP; assay: In vivo monkey studies, plasma cGMP ELISA; set-up: species or system male cynomolgus monkeys; settings: for Net cGMP (nM) Change from Baseline 0.083 h: 0.083 h postdose; for Net cGMP (nM) Change from Baseline 0.083 h / Net cGMP (nM) Change from Baseline 0.25 h / Net cGMP (nM) Change from Baseline 0.5 h / Net cGMP (nM) Change from Baseline 1 h / Net cGMP (nM) Change from Baseline 2 h / Net cGMP (nM) Change from Baseline 4 h / Net cGMP (nM) Change from Baseline 8 h / Net cGMP (nM) Change from Baseline 12 h / Net cGMP (nM) Change from Baseline 24 h / Net cGMP (nM) Change from Baseline 36 h / Net cGMP (nM) Change from Baseline 48 h / Net cGMP (nM) Change from Baseline 72 h / Net cGMP (nM) Change from Baseline 96 h / Net cGMP (nM) Change from Baseline 120 h / Net cGMP (nM) Change from Baseline 144 h / Net cGMP (nM) Change from Baseline 168 h: monkey plasma; for Net cGMP (nM) Change from Baseline 0.25 h: 0.25 h postdose; for Net cGMP (nM) Change from Baseline 0.5 h: 0.5 h postdose; for Net cGMP (nM) Change from Baseline 1 h: 1 h postdose; for Net cGMP (nM) Change from Baseline 2 h: 2 h postdose; for Net cGMP (nM) Change from Baseline 4 h: 4 h postdose; for Net cGMP (nM) Change from Baseline 8 h: 8 h postdose; for Net cGMP (nM) Change from Baseline 12 h: 12 h postdose; for Net cGMP (nM) Change from Baseline 24 h: 24 h postdose; for Net cGMP (nM) Change from Baseline 36 h: 36 h postdose; for Net cGMP (nM) Change from Baseline 48 h: 48 h postdose; for Net cGMP (nM) Change from Baseline 72 h: 72 h postdose; for Net cGMP (nM) Change from Baseline 96 h: 96 h postdose; for Net cGMP (nM) Change from Baseline 120 h: 120 h postdose; for Net cGMP (nM) Change from Baseline 144 h: 144 h postdose; for Net cGMP (nM) Change from Baseline 168 h: 168 h postdose; for net cGMP levels (result in words): monkeys, single SC dose, plasma
Method: In vivo monkey studies were conducted as described in detail below. Young adult-to-adult male cynomolgus monkeys were given a single dose subcutaneously (SC). Blood was collected predose and at various pre-determined timepoints throughout the study period. Aliquot of cynomolgus monkey plasma was received for cyclic cGMP (cGMP) measurement and stored at −80° C. prior to use.
Control plasma was made for determining the recovery rate of spike-in cGMP using Enzo cGMP complete ELISA kit (Enzo Life Sciences, Inc, Farmingdale, NY, cat no. ADI-901-164). Briefly, blood from male Sprague Dawley rats (Inotiv, Indianapolis, IN), about 7 months old, was collected in a BD Vacutainer EDTA tube (Becton Dickinson, Franklin Lakes, NJ, cat no. BD-367856) with volume of approximate 4 mL through retro orbital bleeding. Plasma was prepared by spinning the tube in an Eppendorf Refrigerated Centrifuge 5810R (Brinkman Instruments, Inc, Westbury, NY) at 3500 rpm (3000×g) for 10 min at 4° C. Plasma was collected as Positive Control plasma. Cyclic GMP (cGMP standard from Enzo cGMP complete ELISA kit) was added to the positive control plasma at a final concentration of additional 40 nM. Positive Control and Spiked-in Control plasma were aliquoted and stored at −80° C.
The cGMP content was measured using the Enzo cGMP complete ELISA kit following the manufacturer's directions with modifications as described below. The cGMP standards provided in the kit were diluted 1:3 ranging from 50 nM to 0.023 nM in 1× assay buffer that was diluted in water from 2× assay buffer provided in the kit. The cGMP standards ([…]) were transferred to a 96-well polypropylene plate (Thermo Scientific, cat no. 442587).
Plasma samples were thawed from −80° C. and diluted 1:20 in 1× assay buffer in the above plate with a final volume of 150 μL. Assay buffer was added (150 μL) for both a non-specific binding control (in the absence of cGMP antibody) and a maximum binding control (in the absence of competing cGMP) in duplicate wells. Positive Control and Spiked-in Control plasma were diluted 1:20 in 1× assay buffer with a final volume of 150 μL in duplicate wells of the above plate. All diluted plasma was mixed by pipetting up and down several times.
Acetylation reagent mix was prepared by adding 1-part of acetic anhydride into 2-parts of triethylamine provided in the kit and mixing well using Vortex (Scientific Industries, Inc, Bohemia, NY). All controls, standards, and plasma samples were acetylated by adding 15 μL of acetylation reagent mix into the plate, one column at a time, and shaking for 1 min on a Titer Plate Shaker (Lab-Line Instrument, Inc., Melrose Park, IL) at room temperature. The plate was shaken for an additional 1 min following the acetylation of the last column to ensure the reaction was completed.
Acetylated controls, standard and plasma samples were transferred (100 μL) to an ELISA plate (n=1). Then 50 μL of cGMP conjugate were added to each well followed by the addition of 50 μL cGMP antibody to each well except for two non-specific binding wells, in which 50 μL of 1× assay buffer were added. The plate was then sealed and shaken for 2 h at room temperature on the plate shaker. Following this incubation, the plate was washed five times using 200 μL of 1× wash buffer diluted in water from 5× wash buffer provided in the kit. Then, 200 μL of para-Nitrophenylphosphate (pNpp) were added to each well. The plate was sealed with a new plate sealer and shaken in dark for 1 h at room temperature on the plate shaker. Finally, 50 μL of stop solution were added to each well to stop the enzyme reaction. The plate was then read at 405 nm using SpectraMax Plus (Molecular Devices, San Jose, CA).
The mean absorbance at 405 nm (O.D. 405 nm) for the non-specific binding controls was subtracted from the O.D. 405 nm of all samples. The subtracted O.D. 405 nm of all samples were then normalized with the mean subtracted O.D. 405 nm of the maximum binding controls as B/B0%. […]

[2] = Pharmacokinetics in male Sprague Dawley rats; assay type: in vivo; settings: rat, sc, mean, single subcutaneous administration of 200 nMol/kg, plasma
Method: The pharmacokinetics of the exemplary analogs are evaluated following a single subcutaneous administration of […] to male Sprague Dawley rats. Blood samples are collected over 120 hours, and resulting individual plasma concentrations are used to calculate pharmacokinetic parameters. Peptide plasma (K3 EDTA) concentrations are determined using a qualified LC/MS method that measured the intact mass of the ANP polypeptide. Each peptide and an analog as an internal standard are extracted from 100% specie specified plasma using methanol with 0.1% formic acid. A Thermo Q-Exactive, High Resolution Instrument, and a Thermo Easy Spray PepMap are combined for LC/MS detection.

| Compound | Net cGMP (nM) Change from Baseline 0.083 h ([1]; dose 100 nmol/kg) | Net cGMP (nM) Change from Baseline 0.25 h ([1]; dose 100 nmol/kg) | Net cGMP (nM) Change from Baseline 0.5 h ([1]; dose 100 nmol/kg) | Net cGMP (nM) Change from Baseline 1 h ([1]; dose 100 nmol/kg) | Net cGMP (nM) Change from Baseline 2 h ([1]; dose 100 nmol/kg) | Net cGMP (nM) Change from Baseline 4 h ([1]; dose 100 nmol/kg) | Net cGMP (nM) Change from Baseline 8 h ([1]; dose 100 nmol/kg) | Net cGMP (nM) Change from Baseline 12 h ([1]; dose 100 nmol/kg) | Net cGMP (nM) Change from Baseline 24 h ([1]; dose 100 nmol/kg) | Net cGMP (nM) Change from Baseline 36 h ([1]; dose 100 nmol/kg) | Net cGMP (nM) Change from Baseline 48 h ([1]; dose 100 nmol/kg) | Net cGMP (nM) Change from Baseline 72 h ([1]; dose 100 nmol/kg) | Net cGMP (nM) Change from Baseline 96 h ([1]; dose 100 nmol/kg) | Net cGMP (nM) Change from Baseline 120 h ([1]; dose 100 nmol/kg) | Net cGMP (nM) Change from Baseline 144 h ([1]; dose 100 nmol/kg) | Net cGMP (nM) Change from Baseline 168 h ([1]; dose 100 nmol/kg) | net cGMP levels (result in words) [1] | other results |
| --- | --- | --- | --- | --- | --- | --- | --- | --- | --- | --- | --- | --- | --- | --- | --- | --- | --- | --- |
| CC[C@H](C)[C@@H]1NC(=O)[C@H](CCCNC(=N)N)NC(=O)[C@H](CC(=O)O)NC(=O)[C@H]([C@@H](C)CC)NC(=O)[C@H](CCCNC(=N)N)NC(=O)[C@H](CCCCN)NC(=O)CNC(=O)[C@H](Cc2ccccc2)NC(=O)[C@@H](NC(=O)[C@H](CO)NC(=O)[C@H](CO)NC(=O)[C@H](CCCNC(=N)N)NC(=O)CCNC(=O)[C@H](CCCCN)NC(=O)[C@H](CCC(=O)O)NC(=O)COCCOCCNC(=O)COCCOCCNC(=O)COCCOCCNC(=O)COCCOCCNC(=O)COCCOCCNC(=O)COCCOCCNC(=O)CNC(=O)[C@H](CCCCN)NC(=O)[C@H](CCC(=O)O)NC(=O)[C@H](CCCCN)NC(=O)[C@H](CCC(=O)O)NC(=O)[C@H](CCCCN)NC(=O)[C@H](CCC(=O)O)NC(=O)CC[C@H](NC(=O)CCCCCCCCCCCCCCCCCCC(=O)O)C(=O)O)CSCSC[C@@H](C(=O)N2CCC[C@H]2C(=O)N[C@@H](CO)C(=O)N[C@@H](Cc2ccccc2)C(=O)N[C@@H](CCCNC(=N)N)C(=O)N[C@@H](Cc2c[nH]cn2)C(=O)NCC(=O)NCC(=O)N[C@@H](CCCCN)C(=O)N[C@@H](CO)C(=O)N[C@@H](CO)C(=O)NCC(=O)N[C@@H](C)C(=O)N2CCC[C@H]2C(=O)N2CCC[C@H]2C(=O)N2CCC[C@H]2C(=O)N[C@@H](CO)C(N)=O)NC(=O)CNC(=O)[C@H](CC(C)C)NC(=O)CNC(=O)[C@H](CO)NC(=O)[C@H](CCC(N)=O)NC(=O)[C@H](Cc2c[nH]cn2)NC(=O)CNC1=O [Example 89] | 6.83 nM | 20.73 nM | 33.07 nM | 35.04 nM | 36.11 nM | 42.86 nM | 36.71 nM | 33.87 nM | 30.9 nM | 24.59 nM | 16.29 nM | 15.56 nM | 12.74 nM | 18.95 nM | 12.03 nM | 8.03 nM | increased net cGMP levels |  |
| {C20 diacid-γGlu}-EKEKEKGS[4Pal]RRSSCFGGRIGRIGHQSGLGCPSFRHGGPSSGAPPPS-NH2 (disulfide 14-30) [Example 29] | 2.13 nM | 3.52 nM | 9.03 nM | 10.14 nM | 15.28 nM | 17.75 nM | 26.8 nM | 28.52 nM | 31.75 nM | 32.52 nM | 21.75 nM | 12.46 nM | 12.31 nM | 8.52 nM | 8.28 nM | 4.1 nM | increased net cGMP levels | CL/F [2]: 0.545 mL/min/kg; half-life ([2]; read-out: t½ (converted)): 720 min |
| {C20 diacid-γGlu}-EKEKEKGEKPRSSCFG[Dap]RIDRIGHYSGLGCPSFRHGSPSSGAPPPS-NH2 (linker 14-30 via CH2) [Example 136] |  |  |  |  |  |  |  |  |  |  |  |  |  |  |  |  | increased net cGMP levels | Net cGMP (nM) Change from Baseline 0.083 h ([1]; dose 50 nmol/kg): 3.25 nM; Net cGMP (nM) Change from Baseline 0.25 h ([1]; dose 50 nmol/kg): 12.48 nM; Net cGMP (nM) Change from Baseline 0.5 h ([1]; dose 50 nmol/kg): 20.78 nM; Net cGMP (nM) Change from Baseline 1 h ([1]; dose 50 nmol/kg): 12.12 nM; Net cGMP (nM) Change from Baseline 2 h ([1]; dose 50 nmol/kg): 9.42 nM; Net cGMP (nM) Change from Baseline 4 h ([1]; dose 50 nmol/kg): 8.76 nM; Net cGMP (nM) Change from Baseline 8 h ([1]; dose 50 nmol/kg): 7.65 nM; Net cGMP (nM) Change from Baseline 12 h ([1]; dose 50 nmol/kg): 7.65 nM; Net cGMP (nM) Change from Baseline 24 h ([1]; dose 50 nmol/kg): 11.83 nM; Net cGMP (nM) Change from Baseline 36 h ([1]; dose 50 nmol/kg): 11.18 nM; Net cGMP (nM) Change from Baseline 48 h ([1]; dose 50 nmol/kg): 5.65 nM; Net cGMP (nM) Change from Baseline 72 h ([1]; dose 50 nmol/kg): 2.61 nM; Net cGMP (nM) Change from Baseline 96 h ([1]; dose 50 nmol/kg): 2.05 nM; Net cGMP (nM) Change from Baseline 120 h ([1]; dose 50 nmol/kg): 2.71 nM; Net cGMP (nM) Change from Baseline 144 h ([1]; dose 50 nmol/kg): 3.72 nM; Net cGMP (nM) Change from Baseline 168 h ([1]; dose 50 nmol/kg): 3.36 nM |
